One compound from ChEMBL document CHEMBL4433252, “Bypassing lantibiotic resistance by an effective nisin derivative” (Bioorg Med Chem, 2019) can be followed below.

Values after ≈ are worked out from the molar mass of the structure shown. Active and inactive are the calls of the source. The rule behind the calls is not given here.

Assay [1] has as its system Lactococcus lactis. As to the kind of experiment: Growth inhibition of Lactococcus lactis NZ9000 transfected with pNZ-Erm plasmid incubated for 5 hrs by spectrophotometry. The assay is classed as functional, organism-based. Conditions: NZ9000, 5 h.
The test system of assay [2] is Lactococcus lactis. Kind of assay: Growth inhibition of Lactococcus lactis NZ9000 transfected with Streptococcus agalactiae COH1 NSR incubated for 5 hrs by spectrophotometry. The assay is classed as functional, organism-based. To be noted: NZ9000, 5 h.
The test system of assay [3] is Lactococcus lactis. As to the kind of experiment: Growth inhibition of Lactococcus lactis NZ9000 transfected with Streptococcus agalactiae COH1 NSR S236A mutant incubated for 5 hrs by spectrophotometry. Conditions: NZ9000, 5 h. The assay is classed as functional, organism-based.
Assay [4] relates to Lactococcus lactis. Kind of assay: Resistance index, ratio of IC50 for growth inhibition of Lactococcus lactis NZ9000 transfected with Streptococcus agalactiae COH1 NSR incubated for 5 hrs by spectrophotometry to IC50 for growth inhibition of Lactococcus lactis NZ9000 transfected with pNZ-Erm plasmid incubated for 5 hrs by spectrophotometry. The assay is classed as functional.

Assay [5] has as its system Lactococcus lactis. As to the kind of experiment: Resistance index, ratio of IC50 for growth inhibition of Lactococcus lactis NZ9000 transfected with Streptococcus agalactiae COH1 NSR S236A mutant incubated for 5 hrs by spectrophotometry to IC50 for growth inhibition of Lactococcus lactis NZ9000 transfected with pNZ-Erm plasmid incubated for 5 hrs by spectrophotometry. The assay is classed as functional.

Assay [6] relates to Staphylococcus aureus. As to the kind of experiment: Antibacterial activity against Staphylococcus aureus ATCC 29213 assessed as reduction in cell viability incubated overnight. The assay is classed as functional.
The subject of assay [7] is Enterococcus faecalis. Kind of assay: Antibacterial activity against Enterococcus faecalis ATCC 29212 assessed as reduction in cell viability incubated overnight. The assay is classed as functional.
For assay [8], the system named is Lactococcus lactis. As to the kind of experiment: Induction of pore formation in Lactococcus lactis NZ9000 transfected with Streptococcus agalactiae COH1 NSR assessed as increase in florescence intensity at 30 nM measured after 100 secs by sytox green-based fluorescence assay. The assay is classed as functional, organism-based.
Assay [9] deals with Staphylococcus aureus. As to the kind of experiment: Potency index, ratio of MIC for nisin to MIC for test compound for antibacterial activity against Staphylococcus aureus ATCC 29213 assessed as reduction in cell viability incubated overnight. The assay is classed as functional.
Assay [10] has as its system Enterococcus faecalis. As to the kind of experiment: Potency index, ratio of MIC for nisin to MIC for test compound for antibacterial activity against Enterococcus faecalis ATCC 29212 assessed as reduction in cell viability incubated overnight. The format is functional.

In general, IC50 refers to the midpoint of a concentration-inhibition curve. In general, MIC refers to the lowest concentration that inhibits growth of the organism.

As to `C=C(NC(=O)[C@@H](NC(=O)[C@H](Cc1cnc[nH]1)NC(=O)[C@@H](NC(=O)[C@H](CO)NC(=O)[C@@H]1CCCN1C(=O)[C@H](Cc1cnc[nH]1)NC(=O)[C@@H]1CS[C@@H](C)[C@H](NC(=O)[C@H](CCCCN)NC(=O)[C@H](CCSC)NC(=O)[C@H](CC(N)=O)NC(=O)[C@@H]2CS[C@@H](C)[C@H](NC(=O)[C@H](CCCCN)NC(=O)[C@@H]3CS[C@@H](C)[C@H](NC(=O)[C@@H]4CSC[C@H](NC(=O)/C(=C/C)NC(=O)[C@@H](N)[C@@H](C)CC)C(=O)N[C@@H]([C@@H](C)CC)C(=O)NC(=C)C(=O)N[C@@H](CC(C)C)C(=O)N4)C(=O)N4CCC[C@H]4C(=O)NCC(=O)N3)C(=O)NCC(=O)N[C@@H](C)C(=O)N[C@@H](CC(C)C)C(=O)N[C@@H](CCSC)C(=O)NCC(=O)N2)C(=O)N[C@@H](C)C(=O)N[C@@H](CC)C(=O)N1)[C@@H](C)CC)C(C)C)C(=O)N[C@@H](CCCCN)C(=O)O`, the IC50 is 5.5 nM in the assay with Lactococcus lactis [1], 22.5 nM in the assay with Lactococcus lactis [2] and 24.1 nM with Lactococcus lactis [3]. The “Ratio IC50” value in the assay with Lactococcus lactis [4] and in the assay on Lactococcus lactis [5] was 3.5 throughout. The MIC with Staphylococcus aureus [6] and in the assay with Enterococcus faecalis [7] was 10.6 µM (≈ 35.6 µg/mL) in each case. Also, the outcome with Lactococcus lactis [8] was Active. The Ratio in the assay with Staphylococcus aureus [9] and in the assay with Enterococcus faecalis [10] was 7.8 throughout.
